Some test systems named below: 786-0 renal; A549 NSCLC; ACHN renal; BT-549 breast; CAKI-1 renal; COLO 205 colon; DU-145 prostate; HCT-116 colon; HOP-62 NSCLC; HS 578T breast; K-562 leukemia; MDA-N; OVCAR-5 ovarian; SF-268 CNS; SN12C renal; U251 CNS; UACC-62 melanoma; KM12 colon; NCI-H23 lung.
Assay in all cases: growth of human tumour cells (NCI), 48 h

The values below come from PubChem BioAssay (NCI).

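Tested at 5 concentrations; 48 h exposure; 96-well plates; endpoints linearly interpolated, else capped at highest concentration. TGI: total growth inhibition.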

With `CCC1CCN=C(NS(=O)(=O)c2cc(C)c(Cl)cc2S)N1` (stereo not drawn), the TGI was 97.9 µM with 786-0 renal; greater than 100 µM in the assay with A549 NSCLC; greater than 100 µM in the assay with ACHN renal; 57.2 µM in the assay on BT-549 breast; greater than 100 µM with CAKI-1 renal; greater than 100 µM with COLO 205 colon. For the same compound, the TGI with DU-145 prostate is greater than 100 µM; with HCT-116 colon, 94.6 µM; in the assay with HOP-62 NSCLC it was greater than 100 µM; in the assay with HS 578T breast, 92 µM; with K-562 leukemia, greater than 100 µM; with MDA-N, greater than 100 µM. The TGI in the assay with OVCAR-5 ovarian is 49.9 µM; in the assay with SF-268 CNS it was greater than 100 µM; in the assay on SN12C renal, greater than 100 µM; in the assay on U251 CNS it was 93 µM; in the assay on UACC-62 melanoma, 54.3 µM.

In the case of `COc1cc2oc(-c3ccc4c(c3)OCO4)c(OC)c(=O)c2c(OC)c1O`, the TGI was 43.9 µM with 786-0 renal; greater than 100 µM in the assay with A549 NSCLC; greater than 100 µM with ACHN renal; greater than 100 µM with BT-549 breast; greater than 100 µM with CAKI-1 renal; greater than 100 µM in the assay with COLO 205 colon. In addition, the TGI in the assay with DU-145 prostate, with HCT-116 colon, in the assay with HOP-62 NSCLC, in the assay on HS 578T breast, with K-562 leukemia and in the assay on KM12 colon was greater than 100 µM throughout. For the same compound, the TGI in the assay on MDA-N, with NCI-H23 lung, in the assay with OVCAR-5 ovarian, in the assay on SF-268 CNS, in the assay on SN12C renal and with U251 CNS was greater than 100 µM in each case. This compound also displayed a TGI with UACC-62 melanoma greater than 100 µM.

Consider `Clc1ccc(C(Cc2cccc(Cl)c2)c2c(Cl)nc(N3CCNCC3)nc2Cl)cc1` (stereo not drawn), for which the TGI in the assay with 786-0 renal turned out to be 27.5 µM; in the assay on A549 NSCLC, 29.5 µM; in the assay on ACHN renal it was 28.8 µM; with BT-549 breast, 39.1 µM; with CAKI-1 renal, 24.4 µM; in the assay on COLO 205 colon, 11.9 µM. In addition, the TGI amounted to 33.9 µM in the assay on DU-145 prostate; 25.9 µM with HCT-116 colon; 28.9 µM in the assay on HOP-62 NSCLC; 38.8 µM in the assay with HS 578T breast; 26.5 µM in the assay with K-562 leukemia; 26.8 µM in the assay on KM12 colon. Also, the TGI was found to be 29.6 µM in the assay with MDA-N; 34.1 µM in the assay on NCI-H23 lung; 25 µM in the assay on OVCAR-5 ovarian; 30 µM in the assay with U251 CNS; 36.7 µM with UACC-62 melanoma.

For `CC1=NC2c3c(-c4ccc(Cl)cc4)cn(-c4ccc(C)cc4)c3N=CN2N1` (stereo not drawn), the TGI in the assay on 786-0 renal, in the assay with A549 NSCLC, in the assay with ACHN renal, with BT-549 breast, with CAKI-1 renal and in the assay with COLO 205 colon was greater than 100 µM in each case. Moreover, the TGI was greater than 100 µM with DU-145 prostate; greater than 100 µM in the assay with HCT-116 colon; greater than 100 µM in the assay on HOP-62 NSCLC; 38.4 µM with HS 578T breast; greater than 100 µM with K-562 leukemia; greater than 100 µM in the assay on MDA-N. Besides, the TGI with NCI-H23 lung, with OVCAR-5 ovarian, in the assay with SF-268 CNS, in the assay with SN12C renal, in the assay on U251 CNS and in the assay on UACC-62 melanoma was greater than 100 µM throughout.

As to `O=C(CCCN1CCC2(CC1)CC(=O)N(N1CCOCC1)C2=O)c1ccc(F)cc1`, the TGI in the assay on 786-0 renal, with A549 NSCLC, with ACHN renal, in the assay with BT-549 breast, in the assay with CAKI-1 renal and in the assay on COLO 205 colon was greater than 100 µM in each case. The TGI with DU-145 prostate, in the assay on HCT-116 colon, in the assay with HOP-62 NSCLC, with HS 578T breast, in the assay with K-562 leukemia and in the assay on KM12 colon was greater than 100 µM each time. For the same compound, the TGI in the assay on MDA-N, in the assay with NCI-H23 lung, in the assay on OVCAR-5 ovarian, in the assay on SF-268 CNS, in the assay with SN12C renal and in the assay with U251 CNS was greater than 100 µM in each case. The compound further returned a TGI in the assay with UACC-62 melanoma greater than 100 µM.

For `CCN(CC)C1CCC(C2c3cc4c(cc3OC(N3CCOCC3)C2C)OCO4)CC1` (stereo not drawn), the TGI with 786-0 renal was greater than 100 µM; with A549 NSCLC it was greater than 100 µM; with ACHN renal it was greater than 100 µM; in the assay on BT-549 breast, 84.1 µM; in the assay on CAKI-1 renal it was greater than 100 µM; in the assay with COLO 205 colon, greater than 100 µM. The TGI in the assay with DU-145 prostate was greater than 100 µM; in the assay with HCT-116 colon, greater than 100 µM; with HOP-62 NSCLC, greater than 70.3 µM; in the assay on HS 578T breast, greater than 72.1 µM; with K-562 leukemia, greater than 100 µM; in the assay with KM12 colon it was greater than 100 µM. For the same compound, the TGI is 38 µM with MDA-N; greater than 100 µM in the assay with NCI-H23 lung; 96.9 µM with OVCAR-5 ovarian; greater than 100 µM in the assay with SF-268 CNS; greater than 100 µM with SN12C renal; greater than 100 µM in the assay on U251 CNS. The compound also came in with a TGI with UACC-62 melanoma greater than 100 µM.

With `COC(=O)C1=C(OC(=O)/C(=C/c2ccccc2)c2ccc(Cl)cc2)C(C(=O)OC)[C@@]2(O)[C@@H](C(=O)OC)[C@H](C)C[C@@H]1[C@@H]2C(=O)OC` (stereo partly drawn), the TGI with 786-0 renal, in the assay on A549 NSCLC, in the assay on ACHN renal, in the assay with BT-549 breast, with CAKI-1 renal and in the assay on COLO 205 colon was greater than 100 µM each time. The TGI with DU-145 prostate, with HCT-116 colon, in the assay with HOP-62 NSCLC, with HS 578T breast, with K-562 leukemia and with KM12 colon was greater than 100 µM each time. The TGI with MDA-N, with NCI-H23 lung, in the assay on OVCAR-5 ovarian, in the assay on SF-268 CNS, in the assay on SN12C renal and with U251 CNS was greater than 100 µM each time. The compound further showed a TGI in the assay on UACC-62 melanoma greater than 100 µM.
